Where “and” joins values, the source holds several entries; their conditions need not be identical. Equal entries are not always repeated.

Results on 28 molecules are retold here after patent US20220242850A1, “PHTHALAZIN-1-ONE DERIVATIVES USEFUL AS GRK2 INHIBITORS” (Janssen Pharmaceutica NV, priority 2019, published 2022).

One assay concerns the target T1, GRK2 (Homo sapiens, UniProt P25098).
T1 sequence (P25098 1-689): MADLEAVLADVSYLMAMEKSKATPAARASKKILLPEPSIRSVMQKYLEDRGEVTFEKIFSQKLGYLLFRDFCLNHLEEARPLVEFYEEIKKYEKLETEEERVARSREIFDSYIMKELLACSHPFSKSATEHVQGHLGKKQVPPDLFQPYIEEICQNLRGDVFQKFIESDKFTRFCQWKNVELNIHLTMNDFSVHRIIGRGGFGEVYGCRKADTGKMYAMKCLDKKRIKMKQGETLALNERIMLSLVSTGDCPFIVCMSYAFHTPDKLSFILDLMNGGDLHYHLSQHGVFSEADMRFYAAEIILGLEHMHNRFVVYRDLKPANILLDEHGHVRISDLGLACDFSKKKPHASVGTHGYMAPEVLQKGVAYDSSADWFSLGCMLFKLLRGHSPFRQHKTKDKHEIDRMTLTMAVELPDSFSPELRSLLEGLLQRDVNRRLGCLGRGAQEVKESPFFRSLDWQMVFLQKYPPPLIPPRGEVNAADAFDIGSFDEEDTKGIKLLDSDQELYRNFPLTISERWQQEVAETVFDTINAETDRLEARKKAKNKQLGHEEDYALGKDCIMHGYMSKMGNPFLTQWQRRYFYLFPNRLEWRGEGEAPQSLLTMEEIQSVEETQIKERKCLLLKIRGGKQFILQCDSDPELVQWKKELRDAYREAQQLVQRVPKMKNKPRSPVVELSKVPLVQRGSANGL
Briefly: GRK2 Transcreener Assay. In kind it is biochemical. To be noted: 10 nM GRK2, 10 uM ATP, 150 uM peptide substrate. Here is the method: Positive and negative control wells received an equal volume of DMSO. The final DMSO concentration in the assay is 1%.
The plate was placed in centrifuge equipped with a spin-bucket rotor and spun for 1 min at 1000 rpm.
GRK2 enzymatic reactions were initiated with the addition of 2 μL/well of 50 nM GRK2 in assay buffer. Plates were centrifuged for 1 min at 1000 rpm. For negative control wells, the order of reagent addition was reversed: 10 μL/well ADP detection mix (see below) was added first, followed by the addition of 2 μL/well of the GRK2 solution. Reaction mixtures were incubated at ambient temperature for 2 hours.
Following incubation, the reactions were quenched with 10 μL/well of the Transcreener ADP detection mix. […] The plates were then centrifuged for 1 min at 1000 rpm.
Fluorescence polarization values of the reaction mixtures were read on a Safire II plate reader after a 60 min incubation at ambient temperature. Excitation wavelength=590 nm: emission wavelength=650 nm.
The fluorescence polarization data were converted to % activity as follows:
% activity=(sample−NC)/(PC−NC)*100
where NC is the mean of negative control (ADP detection mix added prior to GRK2 addition), and PC is the mean of positive control (GRK2 reaction without inhibitor). IC50 values are determined from a 4-parameter fit, using the following equation:
(§1) Y=Bottom+(Top−Bottom)/(1+10^(Log IC50-X)*Hill slope)),
(§2) where X=log10 of the compound concentration.
The molecule `[2H]C([2H])(Oc1cccc([C@@H](C)n2ncc3ccc(-c4cn[nH]c4)cc3c2=O)c1)C(=O)O` (single isomer, unassigned) [Compound 20] came in with an IC50 of 190 nM.

Molecule `[2H]C([2H])(Oc1cccc([C@@H](C)n2ncc3ccc(-c4cn[nH]c4)cc3c2=O)c1)C(=O)OC` (single isomer, unassigned) [Compound 21] showed an IC50 of 23 nM.

Take `C[C@H](c1cccc(OCC(=O)O)c1)n1ncc2ccc(-c3ccnc(N)n3)cc2c1=O` (single isomer, unassigned) [Compound 22]: the IC50 was found to be 11000 nM.

Molecule `COC(=O)COc1cccc([C@@H](C)n2ncc3ccc(-c4ccnc(N)n4)cc3c2=O)c1` (single isomer, unassigned) [Compound 27] returned an IC50 of 1900 nM.

`Cc1n[nH]cc1-c1ccc2cnn([C@H](C)c3cccc(OCC(=O)O)c3)c(=O)c2c1` (single isomer, unassigned) [Compound 28] had an IC50 of 410 nM.

With `C[C@H](c1cccc(OCC(=O)O)c1)n1ncc2ccc(-c3cn[nH]c3)cc2c1=O` (single isomer, unassigned) [Compound 29], the concentration for half-maximal inhibition (IC50) came to 47 nM.

`C[C@H](c1cccc(OCCOC2CC2)c1)n1ncc2ccc(-c3cn[nH]c3)cc2c1=O` (single isomer, unassigned) [Compound 30] had a half-maximal inhibitory concentration (IC50) of 660 nM.

Take `Cc1n[nH]cc1-c1ccc2cnn([C@H](C)c3cccc(OCCOC4CC4)c3)c(=O)c2c1` (single isomer, unassigned) [Compound 31]: the midpoint of inhibition, the IC50, lay at 6200 nM.

Take `COc1cccc([C@@H](C)n2ncc3ccc(-c4ccnc(N)n4)cc3c2=O)c1` (single isomer, unassigned) [Compound 33]: half-maximal inhibition (IC50) required 7700 nM.

`O=C(O)Cc1cccc(Cn2ncc3ccc(-c4cn[nH]c4)cc3c2=O)c1` [Compound 23, 2-[3-[[1-oxo-7-(1H-pyrazol-4-yl)phthalazin-2-yl]methyl]phenyl]acetic acid]: the IC50 amounted to 1300 nM.

In turn, `COC(=O)CCNC(=O)c1cccc(Cn2ncc3ccc(-c4cn[nH]c4)cc3c2=O)c1` [Compound 24, Methyl 3-[[3-[[1-oxo-7-(1H-pyrazol-4-yl)phthalazin-2-yl]methyl]benzoyl]amino]propanoate] had an IC50 of 7.4 nM.

Consider `COC(=O)Cc1cccc(Cn2ncc3ccc(-c4cn[nH]c4)cc3c2=O)c1` [Compound 25, Methyl 2-[3-[[1-oxo-7-(1H-pyrazol-4-yl)phthalazin-2-yl]methyl]phenyl]acetate], for which the IC50 was found to be 220 nM.

On to `O=C(O)CCNC(=O)c1cccc(Cn2ncc3ccc(-c4cn[nH]c4)cc3c2=O)c1` [Compound 26, 3-[[3-[[1-Oxo-7-(1H-pyrazol-4-yl)phthalazin-2-yl]methyl]benzoyl]amino]propanoic acid], for which 520 nM corresponded to half-maximal inhibition (IC50).

`CCC(c1cccc(OC)c1)n1ncc2ccc(-c3cn[nH]c3)cc2c1=O` (stereo not shown) [Compound 32, 2-[1-(3-Methoxyphenyl)propyl]-7-(1H-pyrazol-4-yl)phthalazin-1-one] had a 50% inhibitory concentration (IC50) of 1600 nM.

In turn, `COc1cccc(Cn2ncc3ccc(-c4ccnc(N)n4)cc3c2=O)c1` [Compound 34, 7-(2-Aminopyrimidin-4-yl)-2-[(3-methoxyphenyl)methyl]phthalazin-1-one] had an IC50 of 890 nM.

For the molecule `COc1cccc(Cn2ncc3ccc(-c4c[nH]nc4C)cc3c2=O)c1` [Compound 35, 2-[(3-Methoxyphenyl)methyl]-7-(3-methyl-1H-pyrazol-4-yl)phthalazin-1-one], the IC50 is 140 nM and 120 nM.

With `COc1cccc(Cn2ncc3ccc(-c4ccoc4)cc3c2=O)c1` [Compound 36, 7-(3-Furyl)-2-[(3-methoxyphenyl)methyl]phthalazin-1-one], half-maximal inhibition (IC50) required 900 nM.

Molecule `COC(=O)COc1cccc(Cn2ncc3ccc(-c4cn[nH]c4)cc3c2=O)c1` [Compound 37, Methyl 2-[3-[[1-oxo-7-(1H-pyrazol-4-yl)phthalazin-2-yl]methyl]phenoxy]acetate] had an IC50 of less than 5 nM.

The molecule `O=C(O)COc1cccc(Cn2ncc3ccc(-c4cn[nH]c4)cc3c2=O)c1` [Compound 38, 2-[3-[[1-Oxo-7-(1H-pyrazol-4-yl)phthalazin-2-yl]methyl]phenoxy]acetic acid] registered an IC50 of 8 nM.

`O=c1c2cc(-c3cn[nH]c3)ccc2cnn1Cc1cccc(OC(F)(F)F)c1` [Compound 39, 7-(1H-Pyrazol-4-yl)-2-[[3-(trifluoromethoxy)phenyl]methyl]phthalazin-1-one] yielded an IC50 greater than 50000 nM.

`O=c1c2cc(-c3cn[nH]c3)ccc2cnn1Cc1ccccc1` [Compound 40, 2-Benzyl-7-(1H-pyrazol-4-yl)phthalazin-1-one] showed a half-maximal inhibitory concentration (IC50) of 300 nM.

For another assay, the target named is T1, GRK2. The experiment in a line: hGRK2 LANCE Ultra In Vitro Assay. Type of assay: biochemical. To be noted: hGRK2 LANCE Ultra Assay IC50, 10 nM GRK2; ATP 30 or 600 μM (not stated which). On the procedure:
G-protein coupled receptor kinases (GR Kinases) desensitize activated G-protein coupled receptors (GPCRs), by phosphorylation of cytoplasmic loops or carboxyl-terminal tails of GPCRs. GRK2 is one of the 6 different GR kinases and is implicated in heart failure and diabetes.
This assay is sensitive and requires as low as 10 nM enzyme, in a total volume of 10 μL. In addition, the ATP concentration can be varied over a broad range, without interfering with the assay or changing the assay condition. […] Testing inhibitors routinely at both high and low ATP concentrations also enables identification of potential non-ATP competitive inhibitors.
Paroxetine was used as the reference compound in this assay.
Test compounds were dissolved in DMSO at 1 mM and were 3-fold serial diluted. The compound DMSO solutions were then added (100 nL) into a plate well using an acoustic dispenser. To each well was then added 20 nM GRK2 (5 μL) in assay buffer (20 mM HEPES, pH 7.5, 10 mM MgCl2, 0.001% Tween-20®). The plate was sealed and centrifuged at 1000 rpm for 1 min. The plate and wells containing a mixture of GRK2 and test compound were incubated at ambient temperature for 30 min (prior to initializing the enzymatic reaction).
Enzyme reactions were initiated by the addition of 4.9 μL Substrates/Eu-Ab mix to each well. […] Final concentrations of reagents in the assays were as follows: 20 mM HEPES, pH 7.5; 10 mM MgCl2; 0.001% Tween-2® (w/v), 30 or 600 μM ATP; 200 nM ULight-peptide; 4 nM Eu-Ab; 10 nM GRK2; and 1% DMSO.
The plates were sealed and centrifuged at 1000 rpm for 1 min. For reactions at low ATP concentration (30 μM), reaction mixtures were incubated at ambient temperature for 120 min. For reactions at high ATP concentration (600 μM), reaction mixtures were incubated at ambient temperature for 60 min.
The enzyme reactions were quenched by addition of 10 μL of 12 mM EDTA in 1× LANCE detection solution to each well. The plates were then incubated at ambient temperature for 30 min.
The raw HTRF data were converted to % active as follows:
% active=(sample−NC)/(PC−NC)*100
where NC is the mean of negative control (reactions without GRK2), and PC is the mean of positive control (reactions with GRK2 but without inhibitor). IC50 values were determined from a 4-parameter fit, using the following equation:
as §1, §2
In general terms: In TR-FRET formats the signal depends on donor and acceptor labels being close together.
In the case of `COc1cccc(C(C)n2ncc3ccc(-c4cn[nH]c4)cc3c2=O)c1` (single isomer, unassigned) [Compound 16, 2-[1-(3-Methoxyphenyl)ethyl]-7-(1H-pyrazol4-yl)phthalazin-1-one], the IC50 amounted to 89 nM.

On to `COc1cccc(C(C)n2ncc3ccc(-c4cn[nH]c4)cc3c2=O)c1` (single isomer, unassigned) [Compound 17, 2-[1-(3-Methoxyphenyl)ethyl]-7-(1H-pyrazol-4-yl)phthalazin-1-one], for which the IC50 worked out at 1700 nM.

For `COc1cccc(Cl)c1CNC(=O)c1cccc(Cn2ncc3ccc(-c4cn[nH]c4)cc3c2=O)c1` [Compound 1, N-[(2-Chloro-6-methoxy-phenyl)methyl]-3-[[1-oxo-7-(1H-pyrazol-4-yl)phthalazin-2-yl]methyl]benzamide], the IC50 was less than 5 nM.

As for `Cc1cccc(Cl)c1CNC(=O)c1cccc(Cn2ncc3ccc(-c4cn[nH]c4)cc3c2=O)c1` [Compound 2, N-[(2-Chloro-6-methyl-phenyl)methyl]-3-[[1-oxo-7-(1H-pyrazol4-yl)phthaiazin-2-yl]methyl]benzamide], the half-maximal inhibitory concentration (IC50) was less than 5 nM.

Regarding `O=C(NC1CC2CCC1C2)c1cccc(Cn2ncc3ccc(-c4cn[nH]c4)cc3c2=O)c1` (stereo not shown) [Compound 3, N-Norbornan-2-yl-3-[[1-oxo-7-(1H-pyrazol-4-yl)phthalazin-2-yl]methyl]benzamide], half-maximal inhibition (IC50) was put at 5 nM.

For the molecule `C#CCCNC(=O)c1cccc(Cn2ncc3ccc(-c4cn[nH]c4)cc3c2=O)c1` [Compound 4, N-But-3-ynyl-3-[[1-oxo-7-(1H-pyrazol-4-yl)phthalazin-2-yl]methyl]benzamide], half-maximal inhibition (IC50) was put at 5.5 nM.

With `O=C(NC1CC1)c1cc(F)cc(Cn2ncc3ccc(-c4cn[nH]c4)cc3c2=O)c1` [Compound 5], the IC50 turned out to be 6.3 nM.

In general, IC50 refers to the concentration at which inhibition is half-maximal. The low end stands for higher potency, the high end for lower potency.
